From PMC4767422, “Molecular insights into the enzymatic diversity of flavin‐trafficking protein (Ftp; formerly ApbE) in flavoprotein biogenesis in the bacterial periplasm” (MicrobiologyOpen, 2015) come the findings set out here.

Experiment [1] addresses T1, Ftp_Ec (Escherichia coli, UniProt P0AB85, Y79N).
T1 construct: gene apbE; recombinant, ligand-free preparation as in Deka et al. 2013a; signal peptide removed; crystal model residues about 12-341
T1 sequence (P0AB85 21-351 Y79N): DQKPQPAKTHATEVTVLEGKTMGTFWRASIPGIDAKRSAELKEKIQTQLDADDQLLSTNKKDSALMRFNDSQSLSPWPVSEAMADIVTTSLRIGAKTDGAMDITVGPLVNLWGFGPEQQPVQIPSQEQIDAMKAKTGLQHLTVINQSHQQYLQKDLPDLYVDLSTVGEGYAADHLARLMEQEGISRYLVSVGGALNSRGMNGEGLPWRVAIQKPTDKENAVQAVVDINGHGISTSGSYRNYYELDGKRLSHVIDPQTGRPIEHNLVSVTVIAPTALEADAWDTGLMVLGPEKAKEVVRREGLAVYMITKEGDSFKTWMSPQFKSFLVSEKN
The experiment is described as follows: crystal structure, […]-1.[…] A; also inhibits FAD pyrophosphatase activity. The class given is binding. As to conditions: two Mg2+ bound; active site.

For experiment [2], the target named is T2, Ftp_Ec (Escherichia coli, UniProt P0AB85).
T2 construct: gene apbE; recombinant, ligand-free preparation as in Deka et al. 2013a; signal peptide removed; crystal model residues about 12-341
T2 sequence (P0AB85 21-351): T1 sequence (P0AB85 21-351 Y79N) with N59Y
The experiment is described as follows: fluorescence decrease on FAD binding; flavinylation gel. The class given is biochemical. As to conditions: binds FAD without hydrolysis; FMN donor to RnfG_Ec with 5 mM MgCl2, pH 7.5.

A further experiment addresses T3, Ftp_Hd ([Haemophilus] ducreyi, UniProt Q7VNU3).
T3 construct: gene apbE; residues 17-343, signal peptide and acylated Cys removed, N-terminal TEV-cleavable His6 tag (pSpeedET), E. coli
T3 sequence (Q7VNU3 16-342): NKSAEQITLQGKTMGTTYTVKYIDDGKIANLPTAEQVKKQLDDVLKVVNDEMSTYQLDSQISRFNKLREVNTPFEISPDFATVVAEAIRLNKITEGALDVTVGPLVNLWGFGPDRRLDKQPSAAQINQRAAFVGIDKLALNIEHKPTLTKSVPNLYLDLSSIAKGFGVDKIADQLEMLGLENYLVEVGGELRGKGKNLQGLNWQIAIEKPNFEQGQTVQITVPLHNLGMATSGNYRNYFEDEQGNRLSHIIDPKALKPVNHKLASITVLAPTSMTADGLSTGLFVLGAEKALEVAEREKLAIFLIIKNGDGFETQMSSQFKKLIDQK
The experiment is described as follows: UV-visible spectrum of protein as isolated. As to conditions: co-purified flavin, nonstoichiometric; buffer A, pH 7.5. Format: binding.

The next experiment has as its target T4, Ftp_Td (Treponema denticola, UniProt Q73JG1).
T4 construct: gene TDE_2614; residues 28-372, signal peptide and acylated Cys removed, N-terminal TEV-cleavable His6 tag (pSpeedET), E. coli
T4 sequence (Q73JG1 28-371): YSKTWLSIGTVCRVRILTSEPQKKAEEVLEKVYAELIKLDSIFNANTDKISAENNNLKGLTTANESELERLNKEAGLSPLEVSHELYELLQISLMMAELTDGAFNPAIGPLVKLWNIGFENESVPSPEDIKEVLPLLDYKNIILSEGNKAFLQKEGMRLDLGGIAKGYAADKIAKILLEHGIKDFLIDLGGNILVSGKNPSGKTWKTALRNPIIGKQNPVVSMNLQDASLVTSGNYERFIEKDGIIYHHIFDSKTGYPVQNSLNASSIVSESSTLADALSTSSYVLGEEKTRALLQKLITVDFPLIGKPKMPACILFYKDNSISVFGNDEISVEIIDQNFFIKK
The experiment is described as follows: FAD pyrophosphatase assay, FMN fluorescence. Format: biochemical. As to conditions: 10 uM FAD, 5 mM MgCl2, pH 7.5; single turnover.

The target of a further experiment is T5, Ftp_Ab (Alcanivorax borkumensis, UniProt Q0VQR2).
T5 construct: gene apbE; residues 21-338, signal peptide and acylated Cys removed, N-terminal TEV-cleavable His6 tag (pSpeedET), E. coli
T5 sequence (Q0VQR2 20-337): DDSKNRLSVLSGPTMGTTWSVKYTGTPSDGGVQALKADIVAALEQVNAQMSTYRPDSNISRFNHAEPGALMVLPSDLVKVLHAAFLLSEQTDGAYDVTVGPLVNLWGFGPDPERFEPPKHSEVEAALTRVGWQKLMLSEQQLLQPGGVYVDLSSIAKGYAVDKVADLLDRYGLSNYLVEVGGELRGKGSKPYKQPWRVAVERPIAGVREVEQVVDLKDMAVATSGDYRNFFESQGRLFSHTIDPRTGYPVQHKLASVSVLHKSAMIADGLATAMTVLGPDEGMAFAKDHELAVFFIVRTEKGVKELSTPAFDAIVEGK
The experiment is described as follows: UV-visible spectrum of protein as isolated. The class given is binding. As to conditions: co-purified flavin, nonstoichiometric; buffer A, pH 7.5.

Another experiment has as its target T6, Ftp_Lm (Listeria monocytogenes, UniProt A0A0H3GJF7).
T6 construct: gene LMRG_02181; residues 22-361, signal peptide and acylated Cys removed, N-terminal TEV-cleavable His6 tag (pSpeedET), E. coli
T6 sequence (A0A0H3GJF7 21-360): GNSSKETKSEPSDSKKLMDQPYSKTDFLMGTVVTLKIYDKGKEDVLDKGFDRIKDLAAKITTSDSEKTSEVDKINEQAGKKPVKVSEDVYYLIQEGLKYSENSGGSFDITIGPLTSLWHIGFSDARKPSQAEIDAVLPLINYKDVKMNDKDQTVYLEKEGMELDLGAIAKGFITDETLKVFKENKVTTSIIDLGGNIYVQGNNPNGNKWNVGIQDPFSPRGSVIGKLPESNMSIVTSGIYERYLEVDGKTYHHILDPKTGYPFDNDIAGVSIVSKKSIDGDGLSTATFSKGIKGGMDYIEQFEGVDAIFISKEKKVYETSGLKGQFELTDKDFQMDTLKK
Description: FAD pyrophosphatase assay, FMN fluorescence. Format: biochemical. The conditions noted are these: 10 uM FAD, 5 mM MgCl2, pH 7.5; single turnover.

The target in another experiment is T7, Ftp_Ef (Enterococcus faecalis, UniProt Q82Z24).
T7 construct: gene EF_3255; residues 21-356, signal peptide and acylated Cys removed, N-terminal TEV-cleavable His6 tag (pSpeedET), E. coli
T7 sequence (Q82Z24 22-355): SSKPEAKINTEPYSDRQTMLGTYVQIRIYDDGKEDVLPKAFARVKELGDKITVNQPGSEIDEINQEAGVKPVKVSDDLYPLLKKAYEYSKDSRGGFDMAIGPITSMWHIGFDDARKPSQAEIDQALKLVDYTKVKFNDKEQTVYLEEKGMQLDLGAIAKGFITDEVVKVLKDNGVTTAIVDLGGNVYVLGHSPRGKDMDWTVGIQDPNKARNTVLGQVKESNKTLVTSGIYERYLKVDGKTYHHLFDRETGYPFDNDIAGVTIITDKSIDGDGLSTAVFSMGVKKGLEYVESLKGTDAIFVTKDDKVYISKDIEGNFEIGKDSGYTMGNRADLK
Description: FAD pyrophosphatase assay, FMN fluorescence. The conditions noted are these: 10 uM FAD, 5 mM MgCl2, pH 7.5; single turnover. The class given is biochemical.

The target of a further experiment is T8, NqrC_So (Shewanella oneidensis, UniProt Q8EID8).
T8 construct: gene nqrC; residues 32-265, without N-terminal membrane anchor; recloned into pProEx HTb; His tag cut with TEV after flavinylation
T8 sequence (Q8EID8 32-264): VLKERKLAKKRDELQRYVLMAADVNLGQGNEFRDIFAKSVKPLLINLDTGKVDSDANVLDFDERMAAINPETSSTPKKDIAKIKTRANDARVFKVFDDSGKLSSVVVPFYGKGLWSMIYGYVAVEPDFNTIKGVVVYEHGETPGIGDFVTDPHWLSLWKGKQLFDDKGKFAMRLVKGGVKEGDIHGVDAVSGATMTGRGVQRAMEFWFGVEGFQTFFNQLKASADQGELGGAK
The experiment is described as follows: crystal structure, […] A. The class given is binding. As to conditions: covalent phosphoester-threonyl-FMN at T225, formed in vitro by Ftp_So from FAD and Mg2+.

Molecules are shown by their SMILES. Substitutions are numbered along the chain they refer to.

Take `Nc1ncnc2c1ncn2[C@@H]1O[C@H](COP(=O)(O)OP(=O)(O)O)[C@@H](O)[C@H]1O` [ADP]: at Ftp_Ec [1], the “crystal structure, 1.85-1.90 A; also inhibits FAD pyrophosphatase activity” value is on record as “we obtained a crystal structure of the ADP complex with two metals bound”.

For the compound `Cc1cc2nc3c(=O)[nH]c(=O)nc-3n(C[C@H](O)[C@H](O)[C@H](O)COP(=O)(O)OP(=O)(O)OC[C@H]3O[C@@H](n4cnc5c(N)ncnc54)[C@H](O)[C@@H]3O)c2cc1C` [FAD], the “fluorescence decrease on FAD binding; flavinylation gel” value on Ftp_Ec [2] is “wild‐type Ftp_Ec (in orange) binds FAD as demonstrated by a decrease in the emission fluorescence”. Besides, the “UV-visible spectrum of protein as isolated” value on Ftp_Hd is given as “purified as yellow, flavin‐bound forms (holoproteins)”; on Ftp_Ab it was “purified as yellow, flavin‐bound forms (holoproteins)”. In addition, the “FAD pyrophosphatase assay, FMN fluorescence” value on Ftp_Td, at Ftp_Lm and on Ftp_Ef was “all nonyellow Ftps showed single‐turnover kinetics of FAD pyrophosphatase activity” in each case.

For `Cc1cc2nc3c(=O)[nH]c(=O)nc-3n(C[C@H](O)[C@H](O)[C@H](O)COP(=O)(O)O)c2cc1C` [FMN], the “crystal structure, 1.76 A” value on NqrC_So is “The modified threonine (T225) lies at the N‐terminal end of the C‐terminal alpha helix”.
